In assay [1] the test system is migraines; pain during menstruation. Put plainly: Case 2:  four with migraines and menstrual pain. Type of assay: in vivo, person.
Assay [2] concerns depressions, lethargy and physical feebleness; blood pressure. Put plainly: Case 6:  two. In kind it is in vivo, person. An excerpt: Both they themself and their family noticed these improvements.
The test system of assay [3] is depressions, lethargy and physical feebleness. Kind of assay: Case 4: postmenopausal person seven. In kind it is in vivo. To be noted: daily dose of 1 to 4 g. The source says: The improvements were also noticed by their family.
Another assay relates to PMS. Kind of assay: Case 7:  six with PMS. In kind it is in vivo, person. To be noted: average daily dose of 5 g.

Experimental findings from patent US6503951B2, “Use of creatine and/or creatine derivatives for treating typical disorders in women” (SKW Trostberg Aktiengesellschaft, priority 1999, dated 2003) are described below.

As for `CN(CC(=O)O)C(=N)N.O` [creatine monohydrate], in assay [1] (daily dose of 1.5 g, even under extreme conditions), the “migraine attacks provoked by heat or bodily or mental exertion” value is listed as “able to prevent the attacks”. In addition, in assay [2] (combined with an antihypertensive agent, previously severely hypertonic (sys up to 270)), the blood pressure result is reported as “returned to normal”. Moreover, in assay [2] (daily dose of 1 to 5 g), the “motivation (lethargy)” value is “unexpected new motivation”, the “spirits (depressions)” value is “rise in spirits” and the “strength (physical feebleness)” value is recorded as “increase in strength”.

Turning to creatine ascorbate, in assay [3], the “motivation (lethargy)” value is reported as “unexpectedly motivated”, the “spirits (depressions)” value was “rise in spirits” and the “strength (physical feebleness)” value is on record as “gained in strength”.

Turning to creatine pyruvate, the pain during menstruation entry in assay [1] (dose not stated) is recorded as “able to stop the pain”. For the same compound, in the assay with PMS, the abdominal pain result is on record as “no longer suffered”; the “physical complaints of PMS” value is on record as “complete relief”; the “tenderness and swelling of the breast” value is on record as “no longer suffered”.
